Experimental data reported in paper PMC11819963, “In Vitro CO-Releasing and Antioxidant Properties of Sulfonamide-Based CAI-CORMs in a H2O2-Stimulated Human Achilles Tendon-Derived Cell Model” (Molecules, 2025).
pKi: −log10 of the molar value. Where two headings read alike, the source gives them in different places.

Tests used:
[1] = molecular target: T1, hCA IX (Homo sapiens, UniProt Q16790); parameters: method as in earlier work; settings: alkyne precursors marked a in Table S1; cited from earlier work
[2] = molecular target: T2, hCA XII (Homo sapiens, UniProt O43570); parameters: method as in earlier work; settings: alkyne precursors marked a in Table S1; cited from earlier work
T2 sequence (O43570 25-354): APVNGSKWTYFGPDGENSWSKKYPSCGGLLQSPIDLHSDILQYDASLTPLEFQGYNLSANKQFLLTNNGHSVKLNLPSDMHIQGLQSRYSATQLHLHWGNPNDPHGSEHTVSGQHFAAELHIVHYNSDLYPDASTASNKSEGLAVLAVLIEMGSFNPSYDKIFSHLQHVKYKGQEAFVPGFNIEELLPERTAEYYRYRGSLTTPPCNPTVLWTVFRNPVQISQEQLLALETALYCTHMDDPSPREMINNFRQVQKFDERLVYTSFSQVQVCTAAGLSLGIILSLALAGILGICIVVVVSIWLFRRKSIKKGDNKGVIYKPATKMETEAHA

[3] = molecular target: hCA I (Homo sapiens, UniProt P00915); settings: cited from earlier work
Chain of hCA I (P00915 whole entry): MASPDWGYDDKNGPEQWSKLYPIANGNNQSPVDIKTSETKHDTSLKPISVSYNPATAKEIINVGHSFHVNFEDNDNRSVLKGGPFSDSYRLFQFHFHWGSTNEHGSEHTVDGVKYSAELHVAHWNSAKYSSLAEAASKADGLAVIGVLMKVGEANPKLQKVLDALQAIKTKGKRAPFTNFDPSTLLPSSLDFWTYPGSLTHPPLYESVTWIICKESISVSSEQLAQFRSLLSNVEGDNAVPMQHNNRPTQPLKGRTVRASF

[4] = molecular target: T3, hCA II (Homo sapiens, UniProt P00918); parameters: method as in earlier work; settings: alkyne precursors marked a in Table S1; cited from earlier work
[5] = tested on: reduced myoglobin (deoxy-Mb); test: myoglobin carbonylation assay (CO release); parameters: species or system horse
Description: To determine the CO-releasing properties of the designed compounds, the myoglobin carbonylation assay was employed, with some deviations from the standard protocol, as previously reported. The analysed compounds were incubated with reduced myoglobin (deoxy-Mb), and spectra were recorded every 30 min up to 300 min. The release of CO was assessed by evaluating the formation of carbonylated myoglobin (Mb-CO) over time (Figure 3). […] The releasing properties of the compounds were also expressed as CO units released after 300 min of incubation with Mb, as reported in Figure S1 (Supplementary Information File).
All the employed reagents were of analytical grade and acquired from Merck (Milan, Italy). Gaseous CO was obtained from Rivoira (Milan, Italy). A Shimadzu UV1900 UV-Vis Spectrophotometer from 275 to 700 nm at the scanning rate of 200 nm/min was used to record UV-Vis absorption spectra in a disposable plastic cuvette (path length 0.44 cm). The second derivative spectra were generated with the Origin Lab software, and the Savitzky–Golay method was applied using 25 data points for the differentiation process. Neither an increase nor a decrease in the number of points caused changes in the wavelength or in the bandwidth. Lyophilised horse heart Mb was dissolved in phosphate-buffered saline flushed with N2 (PBS, 0.01 M, pH 7.4 to a 20–22 μM final concentration). Two millilitres of this freshly prepared stock solution were placed in a cuvette to record the UV-Vis absorption spectrum of met-Mb. Next, the solutions were divided into two halves: 10 μL of sodium dithionite (30 mg/mL) was added to the first half (reference), and the UV–Vis spectrum of deoxy-Mb was registered. After that, the solution was flushed with CO gas, and the Mb-CO spectrum was acquired. Sodium dithionite was added to the second half (sample), and a spectrum was recorded. Afterwards, a CORM DMSO solution was added to a final CORM concentration of 1.67 μM, 3.33 μM or 20 μM and gently mixed. The solution was covered with 300 μL of light mineral oil to avoid CO escaping and oxygenation of Mb, and the absorption spectrum was recorded at t = 0. Spectra were acquired every 30 min for 300 min, keeping the sample at 37 °C. When necessary, a freshly prepared sodium dithionite solution was added. After 300 min, the total Mb concentration at the end of the assay was determined by flushing the sample with CO gas. Mb-CO concentration at each time point was determined, as previously reported. Each experiment was replicated three times, and the data were expressed as mean ± SEM.

[6] = molecular target: T1, hCA IX; test: stopped-flow CO2 hydrase assay, hCA IX; type: biochemical; settings: mean from three assays, errors ±5–10%
Description: (§1) The CO2 concentrations ranged from 1.7 to 17 mM for the determination of the kinetic parameters and inhibition constants. […] The uncatalysed rates were determined in the same manner and subtracted from the total observed rates. […] The inhibition constants were obtained by non-linear least-squares methods using PRISM 3 and the Cheng–Prusoff equation and represent the mean from at least three different determinations.

[7] = tested on: Human Achilles tendon-derived tenocytes; test: cell metabolic activity (MTT test), basal conditions; type: cell-based
Description: Human Achilles tendon-derived tenocytes (#TEN-F) were purchased by ZenBio Inc. (Durham, NC, USA) and maintained in complete alpha-MEM (EuroClone, Milan, Italy) supplemented with 10% of heat-inactivated FBS (Gibco, Thermo Fisher Scientific, Waltham, MA, USA) and 1% penicillin/streptomycin (EuroClone, Milan, Italy) at 37 °C and 5% CO2 and used from passage 3 up to passage 6.
Cells were seeded in 96-well plates (0.5 × 10^4/well) or 6-well plates (0.5 × 10^5/well) (ThermoFisher Scientific, Waltham, MA, USA) and left to adhere overnight at 37 °C and 5% CO2. For cell metabolic activity experiments (MTT test), tenocytes were treated with increasing concentrations of compounds (range 0–50 µM) for 24 and 48 h. Compounds were dissolved in DMSO to obtain a 200 mM stock solution, and they were afterwards diluted in complete alpha-MEM (DMSO final concentration = 0.1%) for further analyses. In a second set of MTT experiments, tenocytes were pre-incubated with 100 µM H2O2 for 3 h. After that, the pre-incubation medium was discarded and replaced with a fresh one containing the proper compound at increasing concentrations for 24 and 48 h. At the established time points, samples were processed for further analyses.
Tenocytes were seeded in 96 well tissue culture-treated plates (Falcon®, Corning Incorporated, Brooklyn, NY, USA) at 0.5 × 10^4 cells/well. Untreated cells (0 µM) were set as control (100% of cell metabolic activity). At the established time points, the exposure media were replaced by fresh medium containing 3-(4,5-dimethylthiazol-2-yl)-2,5-diphenyltetrazolium bromide (MTT) 0.5 mg/mL (Merck, Darmstadt, Germany) and processed as elsewhere reported [18]. The optical density in each well was measured using a spectrophotometer (Thermo Fisher Scientific, Waltham, MA, USA) at a wavelength of 540 nm. Each experiment was performed three times in triplicates per experimental condition (n = 9).

[8] = molecular target: T2, hCA XII; test: stopped-flow CO2 hydrase assay, hCA XII; type: biochemical; settings: mean from three assays, errors ±5–10%
Description: as §1

[9] = molecular target: T3, hCA II; test: stopped-flow CO2 hydrase assay, hCA II; type: biochemical; settings: mean from three assays, errors ±5–10%
Description: as §1

## C#CCN(CC#C)c1ccc(S(N)(=O)=O)cc1 [C, 4-(diprop-2′-ynylamino)benzenesulfonamide]
[1]
  pKi: 8.05
[2]
  pKi: 8.31
[3]; alkyne precursors marked a in Table S1
  pKi: 5.19
[4]
  pKi: 5.75

## C#CCOc1ccc(S(N)(=O)=O)cc1.[C-]#[O+].[C-]#[O+].[C-]#[O+].[C-]#[O+].[C-]#[O+].[C-]#[O+].[Co].[Co] [1b, 4-(Prop-2′-ynyloxy)benzenesulfonamide hexacarbonyldicobalt]
[5]; 1:1 and 1:6 CORM:Mb, up to 300 min, comparison within series
  CO-release profile (MbCO formed over time): the most efficient
[5]; after 210 min of incubation, 1:1 CORM–Mb ratio (about 20 μM CORM)
  MbCO formed: 6.39 µM
[6]
  pKi: 8.27
[3]; stopped-flow CO2 hydrase assay, cells marked a
  pKi: 5.87
[7]; 24 h exposure, 6.25–50 µM, vs untreated control
  cell metabolic activity (MTT): significantly increase cell metabolic activity
[7]; 48 h exposure
  concentration at which cytotoxicity is seen (MTT): ≥ 25 µM
[8]
  pKi: 9.05
[9]
  pKi: 7.39
